What was measured:
[1] = biological target: human A2B adenosine receptor (Homo sapiens (Human), UniProt P29275); assay: A2B binding affinity radioligand filtration binding assay; details: membranes from HEK293 cells expressing human A2B; tritiated proprietary A2B antagonist
[2] = biological target: human A2A adenosine receptor (Homo sapiens (Human), UniProt P29274); assay: A2A receptor affinity binding assay (radioligand filtration binding or SPA, [3H]SCH58261); details: membranes from HEK293 or CHO cells expressing human A2A; Method (A) filtration or Method (B) SPA
Chain of human A2A adenosine receptor (P29274 whole entry): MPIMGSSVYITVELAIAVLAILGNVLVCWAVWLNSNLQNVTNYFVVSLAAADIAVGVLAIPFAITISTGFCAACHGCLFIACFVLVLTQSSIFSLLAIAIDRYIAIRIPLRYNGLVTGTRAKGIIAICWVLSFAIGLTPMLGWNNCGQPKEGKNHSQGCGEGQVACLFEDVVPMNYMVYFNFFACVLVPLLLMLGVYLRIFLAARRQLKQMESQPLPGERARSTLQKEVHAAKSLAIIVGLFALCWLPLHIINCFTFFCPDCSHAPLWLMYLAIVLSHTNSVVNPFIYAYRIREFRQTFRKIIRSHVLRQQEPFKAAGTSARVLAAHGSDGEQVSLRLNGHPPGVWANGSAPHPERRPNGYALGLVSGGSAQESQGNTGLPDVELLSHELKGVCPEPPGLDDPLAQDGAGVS

Chain of human A2B adenosine receptor (P29275 whole entry): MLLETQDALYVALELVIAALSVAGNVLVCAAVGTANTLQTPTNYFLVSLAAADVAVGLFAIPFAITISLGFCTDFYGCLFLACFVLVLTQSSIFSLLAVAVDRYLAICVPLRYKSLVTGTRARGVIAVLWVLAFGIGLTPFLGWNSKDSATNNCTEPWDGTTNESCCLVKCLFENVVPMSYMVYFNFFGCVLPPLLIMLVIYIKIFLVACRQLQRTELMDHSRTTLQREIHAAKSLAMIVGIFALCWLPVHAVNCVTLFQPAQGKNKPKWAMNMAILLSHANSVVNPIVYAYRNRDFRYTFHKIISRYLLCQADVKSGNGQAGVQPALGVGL

Row | Structure (SMILES) | IC50 [1] [nM] | IC50 [2] [nM]
1 | COc1cccc2c1nc(N)n1nc(C3CC3c3cnc(C)nc3)nc21 (centres unmarked) [Ex-26, 7-methoxy-2-[2-(2-methylpyrimidin-5-yl)cyclopropyl][1,2,4] triazolo[1,5-c] quinazolin-5-amine] | 718 | 12.3
2 | COc1cccc2c1nc(N)n1nc(C3CC3c3cnc(NCCO)nc3)nc21 (centres unmarked) [Ex-22, 2-({5-[2-(5-amino-7-methoxy[1,2,4]triazolo [1,5-c]quinazolin-2-yl)cyclopropyl]pyrimidin-2-yl}amino)ethan-1-ol] | 133 | 7.7
3 | COc1cccc2c1nc(N)n1nc([C@H]3C[C@H](c4ncc(C(C)(C)N)nc4C)C3)nc21 [Ex-90, 2-((1r,3r)-3-(5-(2-aminopropan-2-yl)-3-methylpyrazin-2-yl)cyclobutyl)-7-methoxy-[1,2,4]triazolo[1,5-c]quinazolin-5-amine] | 11.2 | 0.6
4 | COc1cccc2c1nc(N)n1nc([C@@H]3C[C@H]3c3ccc(C(C)(C)O)cc3)nc21 [Ex-1, 2-(4-((1r,2r)-2-(5-amino-7-methoxy-[1,2,4]triazolo[1,5-c]quinazolin-2-yl)cyclopropyl)phenyl)propan-2-ol] | 26.3 | 17.4
5 | CNC(=O)c1cccc(C2CC2c2nc3c4cccc(OC)c4nc(N)n3n2)c1 (centres unmarked) [Ex-4, 3-[2-(5-amino-7-methoxy[1,2,4]triazolo [1,5-c]quinazolin-2-yl)cyclopropyl]-N-methylbenzamide] | 25 | 0.4
6 | COc1cccc2c1nc(N)n1nc([C@H]3C[C@H](c4ncc(C(C)(C)N)cc4F)C3)nc21 [Ex-85, 2-{trans-3-[5-(2-aminopropan-2-yl)-3-fluoropyridin-2-yl]cyclobutyl}-7-methoxy[1,2,4]triazolo[1,5-c]quinazolin-5-amine] | 1.3 | 2.7
7 | CCn1cc(C2CC2c2nc3c4cccc(OC)c4nc(N)n3n2)cn1 (centres unmarked) [Ex-14, 2-[2-(1-ethyl-1H-pyrazol-4-yl)cyclopropyl]-7-methoxy[1,2,4]triazolo [1,5-c]quinazolin-5-amine] | 56.1 | 3.3
8 | COc1cccc2c1nc(N)n1nc([C@H]3C[C@@H](c4ccc(C(C)(C)N)cn4)C3)nc21 [Ex-67, 2-((1s,3s)-3-(5-(2-aminopropan-2-yl)pyridin-2-yl)cyclobutyl)-7-methoxy-[1,2,4]triazolo[1,5-c]quinazolin-5-amine] | 1.8 | 4.3
9 | COc1cccc2c1nc(N)n1nc([C@H]3C[C@@](N)(c4ccc(C(C)(C)O)cn4)C3)nc21 [Ex-138, 2-(6-((l1,3r)-1-amino-3-(5-amino-7-methoxy-[1,2,4]triazolo[1,5-c]quinazolin-2-yl)cyclobutyl)pyridin-3-yl)propan-2-ol] | 12.5 | 9.8
10 | COc1cccc2c1nc(N)n1nc(C3CC3Cc3ccc(F)cc3)nc21 (centres unmarked) [Ex-41] | 127 | 7

Source: patent US20250171447A1, “ADENOSINE RECEPTOR ANTAGONISTS, PHARMACEUTICAL COMPOSITIONS AND THEIR USE THEREOF” (Merck Sharp & Dohme LLC, priority 2022, published 2025)
